Measured values from patent publication US20240150339A1, “Compounds and Their Use as PDE4 Activators” (Mironid Limited, priority 2021, published 2024).

Assays:
[1] = test system: m-IMCD3 cells; assay: Inhibition of PGE2-stimulated in vitro cyst formation in 3D culture of m-IMCD3 cells; type: cell-based, mouse; settings: Mus musculus, mIMCD3, 144 h; 10 μM test compound; mean cyst area (%) compared to 100% for (DMSO + PGE2) and 0% for DMSO control; 100 nM PGE2; 6 days; read-out: % Cyst area after incubation with 10 μM test compound
Outline: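 Mouse m-IMCD3 cells grown in 3D collagen I/Matrigel gels. From 18-24 h after plating, compound (0.1% DMSO) plus 100 nM PGE2 were added and replenished at 2-3 days. After 6 days, imaging gave mean cyst area, scaled to 100% for DMSO+PGE2 and 0% for DMSO alone.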

[2] = test system: PTH-induced cAMP elevation in urine; assay: In vivo model of hyperparathyroidism: PTH-induced cAMP elevation in urine in the anaesthetised rat; settings: i.v. infusion, PTH challenge, urine collected from 90 to 120 min, result in words
Source text: Within the kidney, the binding of parathyroid hormone (PTH) to PTH receptors results in the Gas-mediated elevation of intracellular cAMP. This increase of intracellular cAMP results in extrusion of cAMP to the urine (Yates et al., J Clin Invest 81: 932-938, 1988). This experiment is based upon a modified Ellsworth-Howard assay (Kruse, K. and Kracht, U., European Journal of Pediatrics 146: 373-377, 1987) and conducted in anaesthetized rats. In this experiment, rats were anaesthetized using isoflurane and catheterised to allow the collection of urine from the bladder. After an initial stabilization period, test compounds were administered by i.v. infusion (modelled to steady state) from time 0-120 min. PTH challenge infusion (33 ug/kg/hour) was started after 60 min of test compound infusion and sustained for one hour (60-120 min). Urine collection was conducted in 30-minute periods. Urine cAMP levels were assessed by ELISA (R&D systems). Urine samples were prepared for analysis as per the manufacturer's instructions. A standard curve for cAMP was assayed for each experiment and samples were assessed using a standard dilution range of 1:2, 1:4, 1:8 and 1:16, ensuring that the resulting data remained on the linear portion of the standard curve. […] Urine cAMP concentration remained below 50,000 pmol/mL. […]

## Cc1ncccc1-c1nc2ccc(C(=O)N[C@H]3CCOc4ccccc43)cc2s1 [Example 7, (S)-N-(chroman-4-yl)-2-(2-methylpyridin-3-yl)benzo[d]thiazole-6-carboxamide]
[1]
  activity at 10 µM: -7%
[2]
  Inhibition of PTH-induced cAMP elevation in rat urine (FIG. 3): inhibition
